Values of other authors, collected in patent publication US20020058290A1, “Cell lines and cell-based assays for identification of androgen receptor modulators” (priority 2000, published 2002).

System: MAP kinases Erk-1 and Erk-2
Conditions: AR-transfected PC3 cells; AR dependent, similar to DHT

| Compound | activation of MAP kinases Erk-1 and Erk-2 |
| --- | --- |
| CC(C)(O)C(=O)Nc1ccc([N+](=O)[O-])c(C(F)(F)F)c1 [Hydroxyflutamide] | activate MAP kinases Erk-1 and Erk-2 in an AR dependent fashion |
| CC(O)(CS(=O)(=O)c1ccc(F)cc1)C(=O)Nc1ccc(C#N)c(C(F)(F)F)c1 (centres unmarked) [Casodex] | activate MAP kinases Erk-1 and Erk-2 in an AR dependent fashion |
